Source: US20180008587A1, “THIOHYDANTOIN ANDROGEN RECEPTOR ANTAGONISTS FOR THE TREATMENT OF CANCER” (Jaressen Pharmaceutica NV, priority 2016, published 2018)

Target: T1, AR L701H (Homo sapiens, UniProt P10275, L702H)
T1 construct: expressed in transfected cells; host or cells: HepG2
T1 sequence (P10275 1-920 L702H): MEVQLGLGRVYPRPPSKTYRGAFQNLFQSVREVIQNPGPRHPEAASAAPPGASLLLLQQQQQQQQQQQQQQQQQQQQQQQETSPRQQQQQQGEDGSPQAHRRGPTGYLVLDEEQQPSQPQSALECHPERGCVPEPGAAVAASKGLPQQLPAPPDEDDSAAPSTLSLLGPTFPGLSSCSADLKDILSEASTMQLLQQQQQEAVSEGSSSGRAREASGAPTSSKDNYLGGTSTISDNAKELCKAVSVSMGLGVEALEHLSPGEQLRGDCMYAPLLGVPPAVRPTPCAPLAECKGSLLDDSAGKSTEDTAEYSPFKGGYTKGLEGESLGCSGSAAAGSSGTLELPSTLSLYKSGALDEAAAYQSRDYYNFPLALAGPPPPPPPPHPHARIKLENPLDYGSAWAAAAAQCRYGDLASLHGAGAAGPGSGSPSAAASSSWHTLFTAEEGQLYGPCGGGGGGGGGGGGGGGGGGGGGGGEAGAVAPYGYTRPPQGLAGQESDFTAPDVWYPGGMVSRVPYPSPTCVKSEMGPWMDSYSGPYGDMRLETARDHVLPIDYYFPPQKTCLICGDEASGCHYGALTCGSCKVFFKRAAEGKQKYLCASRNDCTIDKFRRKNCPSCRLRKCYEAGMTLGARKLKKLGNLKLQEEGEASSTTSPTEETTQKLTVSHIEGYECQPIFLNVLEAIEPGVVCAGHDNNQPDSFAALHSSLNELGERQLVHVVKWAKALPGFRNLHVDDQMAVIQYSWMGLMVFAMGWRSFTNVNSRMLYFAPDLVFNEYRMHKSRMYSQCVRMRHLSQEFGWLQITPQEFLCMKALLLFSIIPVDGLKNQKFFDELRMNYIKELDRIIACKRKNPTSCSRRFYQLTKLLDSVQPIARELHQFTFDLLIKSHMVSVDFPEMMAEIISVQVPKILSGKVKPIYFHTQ
Assay: Luciferase transcriptional reporter assay, mutant AR, HepG2, antagonist mode
Type: cell-based
Conditions: HepG2, 90 pM R1881, 48 hours; * denotes incomplete inhibition (otherwise 100%); read-out: Antagonism; IC50, AR construct L701H
Procedure: HepG2 cells were maintained in EMEM supplemented with 10% FBS. One day before transfection, the media was changed to EMEM with 10% CSS. T-150 flasks were transiently transfected using 120 μL Lipofectamine 2000 (Life Technologies), 30 μg mutant cDNA (expression vector)—mutant cDNA tested were L701H, T877A, W741C and H874Y—and 40 μg 4×ARE-Luciferase (reporter vector) in OptiMEM and the flasks were incubated overnight. Cells were then trypsinized, counted and resuspended at 500,000 cells/mL. For agonist mode, the compounds of Formula (I) are serially diluted and 50 μL of the compound added per well. 50 μL of the cells are added to each well and incubated for 48 hours. For antagonist mode, a final concentration of 90 pM R1881 was added to the diluted compounds and incubated for 48 hours. The plates were then assayed using SteadyGlo and read on the Envision. Percent Stimulation and Inhibition is determined and analyzed using GraphPad Prism.
All values are calculated relative to the activity of R1881 induced androgen receptor activity (n≧3).

Compound: N#Cc1ncc(N2C(=O)C3(CCC3)N(c3ccc(OC4CCNCC4)cc3)C2=S)cc1C(F)(F)F [Cpd 35, 5-[5-oxo-8-[4-(4-piperidyloxy)phenyl]-7-thioxo-6,8-diazaspiro[3.4]octan-6-yl]-3-(trifluoromethyl)pyridine-2-carbonitrile]
- IC50: 3.36 µM
